Measured values from paper PMC3985615 (Journal of medicinal chemistry, 2013).

Assays:
Trap-1 [1] = settings: cited from earlier work
Grp94 = Grp94 (Canis lupus familiaris, UniProt P41148); test: FP saturation binding assay of probes, Grp94; set-up: species or system canine; settings: for assay window, Grp94: mP at saturation minus mP of probe alone
Trap-1 [2] = target: T1, Trap-1 (Homo sapiens, UniProt Q12931); settings: from FP competition IC50, Table 1
T1 sequence (Q12931 60-704): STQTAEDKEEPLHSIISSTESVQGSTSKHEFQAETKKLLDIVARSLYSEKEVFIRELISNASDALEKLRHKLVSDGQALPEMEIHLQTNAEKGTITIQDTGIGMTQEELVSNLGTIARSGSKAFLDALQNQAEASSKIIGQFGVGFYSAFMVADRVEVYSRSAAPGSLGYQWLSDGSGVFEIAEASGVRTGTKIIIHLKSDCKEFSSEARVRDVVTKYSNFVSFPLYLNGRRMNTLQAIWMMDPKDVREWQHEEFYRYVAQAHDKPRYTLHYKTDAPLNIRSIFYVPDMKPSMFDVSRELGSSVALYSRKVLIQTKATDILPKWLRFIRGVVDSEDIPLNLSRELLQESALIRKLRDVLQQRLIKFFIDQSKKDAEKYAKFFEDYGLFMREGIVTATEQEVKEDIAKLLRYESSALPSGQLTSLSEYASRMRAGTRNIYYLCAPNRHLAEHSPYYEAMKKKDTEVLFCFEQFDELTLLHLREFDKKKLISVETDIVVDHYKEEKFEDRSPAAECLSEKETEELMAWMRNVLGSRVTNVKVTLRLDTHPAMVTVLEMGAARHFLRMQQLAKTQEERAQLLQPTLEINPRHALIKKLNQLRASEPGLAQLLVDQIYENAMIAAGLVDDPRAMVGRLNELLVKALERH

Hsp90 in SKBr3 lysate = test: FP saturation binding of probes to Hsp90 in cancer cell lysate; set-up: species or system human; settings: 4 °C
Hsp90β = Hsp90β (Homo sapiens, UniProt P08238); test: FP saturation binding assay of probes, Hsp90β; settings: mP at saturation minus mP of probe alone
Hsp90β, sequence (P08238 whole entry): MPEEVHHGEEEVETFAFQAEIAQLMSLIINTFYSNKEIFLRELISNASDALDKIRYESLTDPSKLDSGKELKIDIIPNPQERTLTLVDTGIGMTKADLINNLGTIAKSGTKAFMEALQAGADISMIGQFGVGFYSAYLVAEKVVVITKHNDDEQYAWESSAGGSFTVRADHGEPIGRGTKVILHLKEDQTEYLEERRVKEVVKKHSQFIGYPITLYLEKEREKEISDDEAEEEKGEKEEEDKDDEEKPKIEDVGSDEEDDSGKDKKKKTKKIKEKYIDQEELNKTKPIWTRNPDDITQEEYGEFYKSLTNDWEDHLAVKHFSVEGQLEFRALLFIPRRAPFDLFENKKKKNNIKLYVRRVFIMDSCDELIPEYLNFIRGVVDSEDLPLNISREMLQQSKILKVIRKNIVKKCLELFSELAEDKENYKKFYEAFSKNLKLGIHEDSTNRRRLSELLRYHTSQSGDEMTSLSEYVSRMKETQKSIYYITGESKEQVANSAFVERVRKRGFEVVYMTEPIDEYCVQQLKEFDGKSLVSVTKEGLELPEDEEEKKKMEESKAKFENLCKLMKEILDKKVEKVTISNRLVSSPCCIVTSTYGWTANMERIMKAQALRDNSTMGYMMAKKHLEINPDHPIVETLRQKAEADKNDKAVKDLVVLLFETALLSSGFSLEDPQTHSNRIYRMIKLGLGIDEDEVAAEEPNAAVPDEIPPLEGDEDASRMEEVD

Hsp90α = Hsp90α (Homo sapiens, UniProt P07900); test: FP saturation binding assay of probes, Hsp90α; settings: mP at saturation minus mP of probe alone

Grp94, sequence (P41148 22-804): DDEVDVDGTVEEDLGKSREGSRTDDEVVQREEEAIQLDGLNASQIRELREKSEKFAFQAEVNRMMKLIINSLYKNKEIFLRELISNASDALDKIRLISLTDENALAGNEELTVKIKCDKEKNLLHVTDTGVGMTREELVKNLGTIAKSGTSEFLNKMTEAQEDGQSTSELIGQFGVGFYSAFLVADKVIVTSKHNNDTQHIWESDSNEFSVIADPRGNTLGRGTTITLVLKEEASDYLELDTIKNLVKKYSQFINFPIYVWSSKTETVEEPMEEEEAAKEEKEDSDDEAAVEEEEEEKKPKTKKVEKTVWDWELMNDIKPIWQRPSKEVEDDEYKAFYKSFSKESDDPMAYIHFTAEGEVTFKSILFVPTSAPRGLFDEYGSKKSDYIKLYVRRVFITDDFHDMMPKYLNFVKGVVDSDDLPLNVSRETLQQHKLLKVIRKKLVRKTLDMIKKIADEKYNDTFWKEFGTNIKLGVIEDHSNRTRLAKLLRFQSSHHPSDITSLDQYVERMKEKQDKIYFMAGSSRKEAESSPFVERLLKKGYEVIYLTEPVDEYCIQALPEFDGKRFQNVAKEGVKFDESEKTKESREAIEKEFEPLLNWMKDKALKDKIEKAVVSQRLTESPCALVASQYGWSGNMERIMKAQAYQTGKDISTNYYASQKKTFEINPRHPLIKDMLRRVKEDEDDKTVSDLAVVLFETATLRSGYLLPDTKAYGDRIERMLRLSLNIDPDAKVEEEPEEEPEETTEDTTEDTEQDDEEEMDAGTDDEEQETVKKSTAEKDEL

## Nc1ncnc2c1ncn2[C@@H]1O[C@H](COP(=O)(O)OP(=O)(O)OP(=O)(O)O)[C@@H](O)[C@H]1O [ATP]
Trap-1 [1]
  reported greater affinity of Trap-1 than of Hsp90: approximately 10 fold
Trap-1 [1]; read-out: reported binding affinity for Trap-1
  Kd: 34.3 µM

## CC(C)N(CCCn1c(Sc2cc3c(cc2I)OCO3)nc2c(N)ncnc21)C(=S)Nc1ccc(-c2c3ccc(=O)cc-3oc3cc(O)ccc23)c(C(=O)O)c1 [compound 12]
Grp94; from apparent Kd, saturation binding
  preference for Hsp90α, Hsp90β and Trap-1 over Grp94: 1 log
Grp94
  assay window, Grp94: less than 100 mP

## CN(C)c1cc2c(cc1Sc1nc3c(N)nccc3n1CCNCC(C)(C)C)OCO2 [compound 5]
Trap-1 [2]
  decrease in binding affinity for Trap-1 compared to Hsp90: 50 fold
  loss of affinity for Trap-1 vs Hsp90: ~2 log

## C=CCNC1=C2C[C@@H](C)C[C@H](OC)[C@H](O)[C@@H](C)/C=C(\C)[C@H](OC(N)=O)[C@@H](OC)/C=C\C=C(/C)C(=O)NC(=CC1=O)C2=O [compound 2, 17-allyl-17-demethoxygeldanamycin]
Trap-1 [2]
  loss of affinity for Trap-1 vs Hsp90: ~2 log

## Nc1ncnc2c1nc(Sc1cc3c(cc1I)OCO3)n2CCCNC(=S)Nc1ccc(-c2c3ccc(=O)cc-3oc3cc(O)ccc23)c(C(=O)O)c1 [16a]
Hsp90 in SKBr3 lysate
  time binding remained stable: more than 24 h
  time to reach binding equilibrium with Hsp90: ≤ 8 h
Grp94
  assay window, Grp94: > 150 mP
Hsp90β
  assay window, Hsp90β: > 150 mP
Hsp90α
  assay window, Hsp90α: > 150 mP

## COc1c(C)cnc(Cn2cnc3c(Cl)nc(N)nc32)c1C [compound 3]
Trap-1 [2]
  decrease in binding affinity for Trap-1 compared to Hsp90: 5 fold

## CCNC(=O)c1noc(-c2cc(C(C)C)c(O)cc2O)c1-c1ccc(CN2CCOCC2)cc1 [compound 7]
Trap-1 [2]
  decrease in binding affinity for Trap-1 compared to Hsp90: 2 fold

## CC(C)NCCCn1c(Sc2cc3c(cc2I)OCO3)nc2c(N)ncnc21 [compound 4]
Trap-1 [2]
  decrease in binding affinity for Trap-1 compared to Hsp90: 5 fold

## COC1=C2C[C@@H](C)C[C@H](OC)[C@H](O)[C@@H](C)/C=C(\C)[C@H](OC(N)=O)[C@@H](OC)/C=C\C=C(/C)C(=O)NC(=CC1=O)C2=O [compound 1, Geldanamycin]
Trap-1 [2]
  decrease in binding affinity for Trap-1 compared to Hsp90: 25 fold
